pIC50: −log10 of the molar value. Like-named read-outs stand apart in the source and are kept apart here.
Key:
Format in all cases: cell-based
H1975 cells = assay: Cell proliferation assay Method B, H1975; conditions: Homo sapiens, NCI-H1975; NSCLC; Method B; 72 hours; read-out: antiproliferative activity IC50, H1975
Method: (§1) Cancer cell lines were plated at 5,000 to 10,000 per well in 96-well flat bottomed plates with various concentration of compounds. The cells were incubated with compounds for 72 hours in the presence of 0.5% of fetal bovine serum. Growth inhibition was accessed by adenosine triphosphate (ATP) content assay using Promega CellTiter-Glo kit. Promega CellTiter-Glo kit is an ATP monitoring system based on firefly luciferase. Briefly, 16 μl of mammalian cell lysis and substrate solution was added to 84 μl of culture medium per well to lyse the cells and stabilize the ATP. The mixture was shaken and incubated for 30 minutes and subsequently the luminescence was measured.

MV-4-11 cells = assay: Cell proliferation assay Method B, MV-4-11; conditions: Homo sapiens, MV4-11, AML, 72 hours, read-out: antiproliferative activity IC50, MV-4-11
Method: as §1

ARH77 cells = assay: Cell proliferation assay Method B, ARH77; conditions: Homo sapiens, ARH-77, Multiple Myeloma, 72 hours, read-out: antiproliferative activity IC50, ARH77
Method: as §1

L1210 cells = assay: Cell proliferation assay Method B, L1210; conditions: Mouse LL, 72 hours, read-out: antiproliferative activity IC50, L1210
Method: as §1

MOLT-4 cells = assay: Cell proliferation assay Method B, MOLT-4; conditions: Homo sapiens, ALL, 72 hours, read-out: antiproliferative activity IC50, MOLT-4
Method: as §1

MCF-7 cells = assay: Cell proliferation assay Method B, MCF-7; conditions: Homo sapiens, MCF7, Breast, 72 hours, read-out: antiproliferative activity IC50, MCF-7
Method: as §1

RPMI-8226 cells = assay: Cell proliferation assay Method B, RPMI-8226; conditions: Homo sapiens, Multiple Myeloma, Method B, 72 hours, read-out: antiproliferative activity IC50, RPMI-8226
In short: (§2)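 After 72 hours of exposure to test compounds at multiple concentrations, with fetal bovine serum held at 0.5%, cells were lysed to stabilise ATP and luminescence was measured to gauge growth inhibition.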

U87MG cells = assay: Cell proliferation assay Method B, U87MG; conditions: Homo sapiens, U-87 MG; Glioblastoma; Method B; 72 hours; read-out: antiproliferative activity IC50, U87MG
Method: as §1

MDA-MB-436 cells = assay: Cell proliferation assay Method B, MDA-MB-436; conditions: Homo sapiens, Breast, Method B, 72 hours, read-out: antiproliferative activity IC50, MDA-MB-436
Method: as §1

T47D cells = assay: Cell proliferation assay Method B, T47D; conditions: Homo sapiens, Breast, 72 hours, read-out: antiproliferative activity IC50, T47D
Method: as §1

ZR-75-1 cells = assay: Cell proliferation assay Method B, ZR-75-1; conditions: Homo sapiens, Breast, 72 hours, read-out: antiproliferative activity IC50, ZR-75-1
Method: as §1

SKBr3 cells = assay: Cell proliferation assay Method B, SKBr3; conditions: Homo sapiens, SK-BR-3, Breast, 72 hours, read-out: antiproliferative activity IC50, SKBr3
Method: as §1

BT474 cells = assay: Cell proliferation assay Method B, BT474; conditions: Homo sapiens, BT-474; Breast; Method B; 72 hours; read-out: antiproliferative activity IC50, BT474
In short: as §2

Pfeiffer cells = assay: Cell proliferation assay Method B, Pfeiffer; conditions: Homo sapiens, NHL, 72 hours, read-out: antiproliferative activity IC50, Pfeiffer
Method: as §1

THP-1 cells = assay: Cell proliferation assay Method B, THP-1; conditions: Homo sapiens, AML, 72 hours, read-out: antiproliferative activity IC50, THP-1
Method: as §1

HCC1806 cells = assay: Cell proliferation assay Method B, HCC1806; conditions: Homo sapiens, Breast, 72 hours, read-out: antiproliferative activity IC50, HCC1806
Method: as §1

Raji cells = assay: Cell proliferation assay Method B, Raji; conditions: Homo sapiens, NHL, 72 hours, read-out: antiproliferative activity IC50, Raji
Method: as §1

MDA-MB-453 cells = assay: Cell proliferation assay Method B, MDA-MB-453; conditions: Homo sapiens, Breast, 72 hours, read-out: antiproliferative activity IC50, MDA-MB-453
Method: as §1

Sk-Mel-28 cells = assay: Cell proliferation assay Method B, Sk-Mel-28; conditions: Homo sapiens, SK-MEL-28; Melanoma; Method B; 72 hours; read-out: antiproliferative activity IC50, Sk-Mel-28
Method: as §1

P388 D1 cells = assay: Cell proliferation assay Method B, P388 D1; conditions: P388D1, Mouse Lymphoma, 72 hours, read-out: antiproliferative activity IC50, P388 D1
Method: as §1

H1993 cells = assay: Cell proliferation assay Method B, H1993; conditions: Homo sapiens, NCI-H1993; NSCLC; Method B; 72 hours; read-out: antiproliferative activity IC50, H1993
Method: as §1

A375 cells = assay: Cell proliferation assay Method B, A375; conditions: Homo sapiens, A-375; Melanoma; Method B; 72 hours; read-out: antiproliferative activity IC50, A375
Method: as §1

Ca127 cells = assay: Cell proliferation assay Method B, Ca127; conditions: HNC; Method B; 72 hours; read-out: antiproliferative activity IC50, Ca127
Method: as §1

MDA-MB-231 cells = assay: Cell proliferation assay Method B, MDA-MB-231; conditions: Homo sapiens, Breast, Method B, 72 hours
Method: as §1

Daudi cells = assay: Cell proliferation assay Method B, Daudi; conditions: Homo sapiens, NHL, 72 hours, read-out: antiproliferative activity IC50, Daudi
Method: as §1

MEG-01 cells = assay: Cell proliferation assay Method B, MEG-01; conditions: Homo sapiens, CML, 72 hours, read-out: antiproliferative activity IC50, MEG-01
Method: as §1

HCC1500 cells = assay: Cell proliferation assay Method B, HCC1500; conditions: Breast, 72 hours, read-out: antiproliferative activity IC50, HCC1500
Method: as §1

MDA-MB-361 cells = assay: Cell proliferation assay Method B, MDA-MB-361; conditions: Homo sapiens, Breast, 72 hours, read-out: antiproliferative activity IC50, MDA-MB-361
Method: as §1

HL-60 cells = assay: Cell proliferation assay Method B, HL-60; conditions: Homo sapiens, AML, 72 hours, read-out: antiproliferative activity IC50, HL-60
Method: as §1

[1] = read-out: antiproliferative activity IC50, MDA-MB-231 (second listing, r32)

| Structure (SMILES) | pIC50 (H1975 cells) | pIC50 (MV-4-11 cells) | pIC50 (ARH77 cells) | pIC50 (L1210 cells) | pIC50 (MOLT-4 cells) | pIC50 (MCF-7 cells) | pIC50 (RPMI-8226 cells) | pIC50 (U87MG cells) | pIC50 (MDA-MB-436 cells) | pIC50 (T47D cells) | pIC50 (ZR-75-1 cells) | pIC50 (SKBr3 cells) | pIC50 (BT474 cells) | pIC50 (Pfeiffer cells) | pIC50 (THP-1 cells) | pIC50 (HCC1806 cells) | pIC50 (Raji cells) | pIC50 (MDA-MB-453 cells) | pIC50 (Sk-Mel-28 cells) | pIC50 (P388 D1 cells) | also measured |
| --- | --- | --- | --- | --- | --- | --- | --- | --- | --- | --- | --- | --- | --- | --- | --- | --- | --- | --- | --- | --- | --- |
| CN(Cc1cc2nc(-c3ccc(N)cc3)nc(N3CCOCC3)c2s1)c1ncc(C(=O)NO)cn1 [Compound 150, 2-(((2-(4-aminophenyl)-4-morpholinothieno[3,2-d]pyrimidin-6-yl)methyl)(methyl)amino)-N-hydroxypyrimidine-5-carboxamide] | > 8.00 | > 8.00 | > 8.00 | > 8.00 | > 8.00 | > 8.00 | > 8.00 | > 8.00 | > 8.00 | > 8.00 | 7.00 to 8.00 | 7.00 to 8.00 | > 8.00 | > 8.00 | > 8.00 | 7.00 to 8.00 | > 8.00 | > 8.00 | > 8.00 | > 8.00 | pIC50 (H1993 cells): > 8.00; pIC50 (A375 cells): > 8.00; pIC50 (Ca127 cells): > 8.00; pIC50 (MDA-MB-231 cells; [1]): 7.00 to 8.00; pIC50 (Daudi cells): > 8.00; pIC50 (MEG-01 cells): 7.00 to 8.00; pIC50 (HCC1500 cells): > 8.00; pIC50 (MDA-MB-361 cells): > 8.00; pIC50 (HL-60 cells): > 8.00 |
| CS(=O)(=O)N1CCN(Cc2cc3nc(-c4cccc5[nH]ncc45)nc(N4CCOCC4)c3s2)CC1 [GDC-0941, reference compound] | 6.00 to 7.00 | 5.00 to 6.00 | < 5.00 | < 5.00 | 6.00 to 7.00 | 6.00 to 7.00 | < 5.00 | 6.00 to 7.00 | 5.00 to 6.00 | < 5.00 | 6.00 to 7.00 | < 5.00 | 6.00 to 7.00 | 6.00 to 7.00 | 5.00 to 6.00 | < 5.00 | < 5.00 | 6.00 to 7.00 | 7.00 to 8.00 | 5.00 to 6.00 | pIC50 (H1993 cells): 5.00 to 6.00; pIC50 (A375 cells): 5.00 to 6.00; pIC50 (Ca127 cells): 6.00 to 7.00; pIC50 (MDA-MB-231 cells; read-out: antiproliferative activity IC50, MDA-MB-231 (first listing, r25)): < 5.00; pIC50 (MDA-MB-231 cells; [1]): < 5.00; pIC50 (Daudi cells): < 5.00; pIC50 (MEG-01 cells): < 5.00; pIC50 (HCC1500 cells): < 5.00; pIC50 (MDA-MB-361 cells): 6.00 to 7.00; pIC50 (HL-60 cells): 6.00 to 7.00 |
